# Data as given in ChEMBL document CHEMBL1201862, “PubChem BioAssay data set” (2004).
#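 96-well plates; 48 h exposure; 5 concentrations. Endpoints by linear interpolation between flanking doses. Not reached: highest tested concentration assigned. GI50 = concentration required for 50% inhibition of growth.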 Active and inactive are the calls of the source. Cut-off read from the data, not from the text of the source: active = GI50 up to about 1.1 µM and inactive = higher.
# Assays:
# Test in all cases: NCI anticancer screen, dose series, 48 h
# [1] = test system: ACHN
# [2] = test system: BT-549
# [3] = test system: CAKI-1
# [4] = test system: HCT-116
# [5] = test system: Hs-578T
# [6] = test system: IGROV-1
# [7] = test system: K562
# [8] = test system: KM12
# [9] = test system: MDA-MB-435
# [10] = test system: MOLT-4
# [11] = test system: Malme-3M
# [12] = test system: OVCAR-3
# [13] = test system: OVCAR-4
# [14] = test system: RXF 393
# [15] = test system: SF-539
# [16] = test system: SW-620
# [17] = test system: T47D
# [18] = test system: TK-10
# [19] = test system: UO-31
Structure (SMILES),GI50 [1],GI50 [2],GI50 [3],GI50 [4],GI50 [5],GI50 [6],GI50 [7],GI50 [8],GI50 [9],GI50 [10],GI50 [11],GI50 [12],GI50 [13],GI50 [14],GI50 [15],GI50 [16],GI50 [17],GI50 [18],GI50 [19]
Cc1c2c(c(C)c3c[n+](C)ccc13)Oc1ccccc1O2,34.9 µM (inactive),2.67 µM (inactive),> 67.5 µM (inactive),22.8 µM (inactive),3.13 µM (inactive),13.9 µM (inactive),3.59 µM (inactive),0.82 µM (active),15.1 µM (inactive),3.02 µM (inactive),2.56 µM (inactive),3.17 µM (inactive),9.42 µM (inactive),34.7 µM (inactive),3.78 µM (inactive),16.9 µM (inactive),2.57 µM (inactive),50.9 µM (inactive),94.4 µM (inactive)
C=CCN1C(=O)/C(=C/c2cccs2)N=C1SC/C=C/C,35.5 µM (inactive),39.1 µM (inactive),46.9 µM (inactive),26.3 µM (inactive),32.7 µM (inactive),63.8 µM (inactive),32.5 µM (inactive),31.3 µM (inactive),34.5 µM (inactive),14.7 µM (inactive),34 µM (inactive),44.8 µM (inactive),23.3 µM (inactive),22.8 µM (inactive),58.3 µM (inactive),35.6 µM (inactive),21 µM (inactive),92 µM (inactive),44.2 µM (inactive)
S=C(CSc1ccccc1)Nc1cccc2ccccc12,39.7 µM (inactive),51.6 µM (inactive),59 µM (inactive),35 µM (inactive),77.1 µM (inactive),72.8 µM (inactive),40.2 µM (inactive),40.8 µM (inactive),34.1 µM (inactive),21.6 µM (inactive),40.3 µM (inactive),20.8 µM (inactive),21.6 µM (inactive),> 100 µM (inactive),28.4 µM (inactive),55 µM (inactive),40.3 µM (inactive),36.3 µM (inactive),46.2 µM (inactive)
N=C(CC(=O)Nc1ccccn1)c1ccccc1,> 100 µM (inactive),> 100 µM (inactive),> 100 µM (inactive),> 100 µM (inactive),> 100 µM (inactive),> 100 µM (inactive),> 100 µM (inactive),> 100 µM (inactive),> 100 µM (inactive),> 100 µM (inactive),> 100 µM (inactive),> 100 µM (inactive),> 100 µM (inactive),> 100 µM (inactive),> 100 µM (inactive),> 100 µM (inactive),> 100 µM (inactive),> 100 µM (inactive),> 100 µM (inactive)
COc1cccc2nc3c(C(=O)NCCN(C)C)cccc3cc12,0.655 µM (active),2.57 µM (inactive),0.619 µM (active),1.34 µM (inactive),1.82 µM (inactive),1.88 µM (inactive),1.95 µM (inactive),2.3 µM (inactive),2.69 µM (inactive),0.325 µM (active),1.56 µM (inactive),3.14 µM (inactive),1.67 µM (inactive),3.94 µM (inactive),1.85 µM (inactive),1.09 µM (active),3.65 µM (inactive),2.57 µM (inactive),1.11 µM (active)
COC(=O)C1=CON2C3CC4CC(C3)CC(C4)C12C (centres undefined),> 100 µM (inactive),> 100 µM (inactive),> 100 µM (inactive),> 100 µM (inactive),> 100 µM (inactive),> 100 µM (inactive),> 100 µM (inactive),> 100 µM (inactive),> 100 µM (inactive),> 100 µM (inactive),> 100 µM (inactive),> 100 µM (inactive),> 100 µM (inactive),> 100 µM (inactive),> 100 µM (inactive),> 100 µM (inactive),> 100 µM (inactive),> 100 µM (inactive),> 100 µM (inactive)
C=C(CN1CC2C[C@](C(=O)OC)(c3cc4ccccc4[nH]3)C1C(OC)C2OC)S(=O)(=O)c1ccccc1 (some centres undefined),3.01 µM (inactive),3.85 µM (inactive),3.71 µM (inactive),2.54 µM (inactive),2.5 µM (inactive),2.6 µM (inactive),2.75 µM (inactive),2.88 µM (inactive),2.29 µM (inactive),0.53 µM (active),0.43 µM (active),3.35 µM (inactive),3.04 µM (inactive),3.19 µM (inactive),4.9 µM (inactive),3.01 µM (inactive),4.6 µM (inactive),4.85 µM (inactive),1.49 µM (inactive)
C=C1C(=O)O[C@@H]2C[C@@H](C)[C@@H]3[C@@H](OC4OC(COC(C)=O)C(O)C(O)C4O)CC(=O)[C@@]3(C)C[C@H]12 (some centres undefined),0.508 µM (active),1.34 µM (inactive),0.508 µM (active),0.659 µM (active),25.2 µM (inactive),2.17 µM (inactive),0.596 µM (active),11 µM (inactive),2.26 µM (inactive),1.94 µM (inactive),0.283 µM (active),1.1 µM (active),3.31 µM (inactive),1.85 µM (inactive),2.42 µM (inactive),0.574 µM (active),2.84 µM (inactive),1.68 µM (inactive),1.83 µM (inactive)
C(=N\c1ccc(-c2nc3ccccc3s2)cc1)/c1ccco1,44.8 µM (inactive),83.4 µM (inactive),49.1 µM (inactive),82 µM (inactive),> 100 µM (inactive),58.1 µM (inactive),41.3 µM (inactive),38 µM (inactive),64.3 µM (inactive),29 µM (inactive),> 100 µM (inactive),43.6 µM (inactive),59.6 µM (inactive),55.7 µM (inactive),> 100 µM (inactive),> 100 µM (inactive),41.6 µM (inactive),2 µM (inactive),62.4 µM (inactive)
COc1ccc2c(c1)/C(=C\c1c(Cl)[nH]c3cc(C)c(OC)cc13)C(=O)N2,1.05 µM (active),0.679 µM (active),1.46 µM (inactive),0.979 µM (active),0.667 µM (active),0.467 µM (active),0.522 µM (active),0.467 µM (active),0.198 µM (active),0.893 µM (active),1.28 µM (inactive),0.347 µM (active),1.45 µM (inactive),0.891 µM (active),0.266 µM (active),1.22 µM (inactive),12.9 µM (inactive),1.64 µM (inactive),3.13 µM (inactive)
CN(C)CCCNc1c2c(nc3ccc(Cl)cc13)CCCC2,16.1 µM (inactive),18.1 µM (inactive),23.3 µM (inactive),6.03 µM (inactive),19.1 µM (inactive),12.7 µM (inactive),0.492 µM (active),13.6 µM (inactive),14.9 µM (inactive),4.12 µM (inactive),15.6 µM (inactive),14.8 µM (inactive),15.3 µM (inactive),12.9 µM (inactive),13.5 µM (inactive),9.75 µM (inactive),26.5 µM (inactive),15.2 µM (inactive),10 µM (inactive)
